Assay results published in publication PMC7576996, “Antiparasitic Behavior of Trifluoromethylated Pyrazole 2-Amino-1,3,4-thiadiazole Hybrids and Their Analogues: Synthesis and Structure-Activity Relationship” (Frontiers in Pharmacology, 2020).

What was measured:
[1] = system: epimastigote form of Trypanosoma cruzi; test: Antiproliferative assay, epimastigote form of Trypanosoma cruzi (XTT, 96 h); type: cell-based; settings: for SI T-M, selectivity index (Macrophages CC50/T. cruzi IC50): J774A1 vs epimastigotes; for SI T-E, selectivity index (Epithelial CC50/T. cruzi IC50): LLCMK2 vs epimastigotes; for IC50: Trypanosoma cruzi, epimastigote form, 96 h, mean ± standard deviation, read-out: T. cruzi IC50
Protocol: (§1) All the novel trifluoromethylated pyrazoles derivatives 2a–f, 3a–f, and 4a–f were evaluated against the promastigote form of L. amazonensis and the epimastigote form of T. cruzi. The results are reported as the concentration causing a 50% inhibition in cell growth (IC50). Additionally, the toxicity of compounds was evaluated against two different cell lines: epithelial cell LLCMK2 and macrophages J774A1. The antiproliferative and cytotoxic activities are shown in Table 2 , as well as the calculated selectivity index (SI).
(§2) 2.4. Antiproliferative activity
(§3) Promastigotes forms of Leishmania amazonensis (strain WHOM/ BR/75/JOSEFA) were
(§4) cultured in Warren medium (brain heart infusion, hemin, and folic acid; pH 7.4) supplemented with
(§5) 10% fetal bovine serum (FBS) at 25 °C. Epimastigote forms of Trypanosoma cruzi (Y strain) were
(§6) cultured in LIT medium (liver infusion tryptose; hemim, and folic acid; pH 7.4) supplemented with
(§7) Cytotoxicity activity was determined in LLCMK2 (epithelial cells of kidney of Macaca
(§8) mulatta) cells and J774A1 macrophages. LLCMK2 (epithelial cells of kidney of Macaca mulatta) cells
(§9) were cultured in Dulbecco’s modified Eagle’s medium (DMEM, pH 7.2) supplemented with 10% FBS
(§10) at 37 °C in a 5% CO2 atmosphere. J774A1 macrophages were cultured in RPMI-1640 (pH 7.2) medium
(§11) supplemented with 10% FBS at 37 °C in a 5% CO2 atmosphere.
(§12) 2.4.2. Dilution of compounds
(§13) Stock solutions of the compounds were prepared in DMSO and then diluted in the respective
(§14) medium. The groups (controls and treated) were tested with DMSO concentrations below 1%, with
(§15) 2.4.3. Antiproliferative assay
(§16) Promastigote forms (1 × 10^6 parasites/mL) were cultured in 96-well plates in the presence and
(§17) absence of different concentrations of compounds diluted in Warren medium supplemented with 10%
(§18) FBS and incubated for 72h. Epimastigote forms (1 × 10^6 parasites/mL) were cultured in 96 -well plates
(§19) in the presence and absence of different concentrations of compounds diluted in LIT medium
(§20) supplemented with 10% FBS and incubated for 96h. After treatment, the parasites were incu bated with
(§21) a solution of 2,3 -bis (2 -methoxy -4-nitro -5-sulfophenyl) -2H-tetrazolium -5-carboxanilide (XTT; 0.5
(§22) mg/mL) and phenazine methanesulfonate activator (PMS; 0.06 mg/mL) in PBS for 4h. Then, the
(§23) absorbance was read in a microplate reader (Bio Tek - Power Wave XS) at 450 nm. The percentage of
(§24) viable parasites was calculated in relation to the control in order to determine the concentration that
(§25) inhibits 50% of the protozoa (IC 50).
(§26) 2.4.4. Cytotoxicity assay
(§27) LLCMK2 cells (2.5 × 10^5 cells/mL) suspension was prepared in DMEM medium supplemented
(§28) with 10% FBS and added to 96-well plates. Then, the plates were incubated at 37 °C in a
(§29) CO2 atmosphere for 24h to obtain confluent cell growth. After incubation, cells were treated or not
(§30) with different concentrations of compounds diluted in DMEM for 72 h. Macrophage (5 × 10^5 cells/mL)
(§31) suspension was prepared in RPMI-1640 medium supplemented with 10% FBS and added to 96-well
(§32) plates. Then, the plates were incubated at 37 °C in a CO2 atmosphere for 24h to obtain confluent cell
(§33) growth. After incubation, cells were treated or not with different concentrations of compounds diluted
(§34) in RPMI-1640 for 48h. After treatment, medium was removed and cells were incubated with MTT (2
(§35) mg/mL) for 4h. Then, DMSO was added for solubilization of the formazan and analyzed with a reading

[2] = Cytotoxicity assay in J774A1 macrophages (MTT, 48 h); type: cell-based; settings: mouse, pH 7.2, J774A1, 50% inhibition of growth
Protocol: as §1
(§36) 2.4. Antiproliferative activity […]
as §7, §8, §9, §10, §11, §12, §13, §14
(§37) 2.4.3. Antiproliferative assay […]
as §26, §27, §28, §29, §30, §31, §32, §33, §34, §35
(§38) microplate reader (BIO-TEK PowerWave XS spectrophotometer) at 392 nm. The percentage of viable
(§39) cells was calculated in relation to the control to determine the cytotoxic concentration to 50% of the […]

[3] = system: promastigote form of Leishmania amazonensis; test: Antiproliferative assay, promastigote form of Leishmania amazonensis (XTT, 72 h); type: cell-based; settings: for SI L-M, selectivity index (Macrophages CC50/L. amazonensis IC50): J774A1 vs promastigotes; for SI L-E, selectivity index (Epithelial CC50/L. amazonensis IC50): LLCMK2 vs promastigotes; for IC50: Leishmania amazonensis, promastigote form, 72 h, mean ± standard deviation, read-out: L. amazonensis IC50
Protocol: as §1, §2, §3, §4, §5, §6, §7, §8, §9, §10, §11, §12, §13, §14, §15, §16, §17, §18, §19, §20, §21, §22, §23, §24, §25, §26, §27, §28, §29, §30, §31, §32, §33, §34, §35

[4] = Cytotoxicity assay in LLCMK2 epithelial cells (MTT, 72 h); type: cell-based; settings: Macaca mulatta, LLCMK2 kidney epithelial cells, pH 7.2, LLCMK2, 50% inhibition of growth
Protocol: as §1, §36, §7, §8, §9, §10, §11, §12, §13, §14, §37, §26, §27, §28, §29, §30, §31, §32, §33, §34, §35, §38, §39

Compound | SI T-M, selectivity index (Macrophages CC50/T. cruzi IC50) [1] | SI T-E, selectivity index (Epithelial CC50/T. cruzi IC50) [1] | IC50 [1] [µM] | CC50 at 48 h [2] [µM] | SI L-M, selectivity index (Macrophages CC50/L. amazonensis IC50) [3] | SI L-E, selectivity index (Epithelial CC50/L. amazonensis IC50) [3] | IC50 [3] [µM] | CC50 at 72 h [4] [µM] | melting point [°C]
NC(=S)NN=Cc1c(C(F)(F)F)nn(-c2ccccc2)c1-c1ccc(Cl)cc1 [2c, 4-[(2-carbamothioyl-hydrazinylidene)methyl]-5-(4-chlorophenyl)-3-trifluoromethyl-1-phenyl-1H-pyrazole] | 8.17 | 7.66 | 49.2 ± 3.1 | 402 ± 8.3 | 9.02 | 8.45 | 44.6 ± 6.2 | 377 ± 5 | 225.37
O=Cc1c(C(F)(F)F)nn(-c2ccccc2)c1-c1ccc([N+](=O)[O-])cc1 [compound 5, 3-trifluoromethyl-4-formyl-5-(4-nitrophenyl)-1-phenyl-1H-pyrazole] | 3.03 | 5.22 | 80.8 ± 3.7 | 245 ± 2.7 | 3.35 | 5.76 | 73.1 ± 2.8 | 422 ± 12.3 | 155.2 to 156.1
NC(=S)NN=Cc1c(C(F)(F)F)nn(-c2ccccc2)c1-c1ccc(F)cc1 [2b, 4-[(2-carbamothioyl-hydrazinylidene)methyl]-3-trifluoromethyl-5-(4-fluorophenyl)-1-phenyl-1H-pyrazole] | 2.92 | 4.99 | 69.3 ± 2.9 | 203 ± 5.9 | 4.09 | 6.97 | 49.6 ± 3.8 | 345.7 ± 2.6 | 221.18
CSC(N)=NN=Cc1c(C(F)(F)F)nn(-c2ccccc2)c1-c1ccccc1 [3e] | 5.23 | 3.25 | 62.4 ± 3.8 | 326 ± 4.5 | 7.30 | 4.53 | 44.7 ± 5 | 202 ± 6.2 | 165.65
COc1ccc(-c2c(C=NNC(N)=S)c(C(F)(F)F)nn2-c2ccccc2)cc1 [2f, 4-[(2-carbamothioyl-hydrazinylidene)methyl]-3-trifluoromethyl-5-(4-methoxyphenyl)-1-phenyl-1H-pyrazole] | 6.06 | 5.21 | 29.7 ± 2.6 | 180 ± 4.7 | 8.04 | 6.91 | 22.4 ± 3 | 155 ± 2.6 | 212.65
